“Also recorded” adds a separate entry of the source.
Assays:
HIV-1 strain IIIB = assay: Inhibition of HIV-1-induced syncytia formation (infected centers assay); type: cell-based; settings: for inhibition of syncytia formation (in words): 3×10^-4 M (adenosine 9×10^-4 M); for inhibition of HIV-1-induced syncytia formation: 3×10^-4 M, PBL infected with HIV-1 IIIB, Sup T1 cells, read at 72 h
Text: FIG. 5A represents the results of an assay performed according to the method of Henderson et al., Virology 182: 186-198 (1991), indicating the inhibition of HIV-1 (IIIB)-induced syncytia formation by adenosine, 2-5A trimer or tetramer core or 2',5'- phosphorothioate/phosphodiester trimer derivatives: ARp *ApA, ASp *ApA, ApARp *A, ApASp *A, ARp *ApApA, ASp *ApApA, ApARp *ApA, ApASp *ApA, ApApARp *A, ApApASp *A.
FIG. 5B is the results of an assay performed according to the method of FIG. 5A with a 2',5'-phosphorothioate/phosphodiester tetramer derivative of 2-5A core.
The infected centers assay as described by Henderson et al., Virology 182: 186-198 (1991), was used to measure the ability of the phosphorothioate/phosphodiester derivatives of 2-5A trimer and tetramer cores to inhibit HIV-1 induced syncytia formation, an indicator of HIV-1 replication in T cells. Freshly isolated peripheral blood lymphocytes (PBL) were treated with 2-5A or derivatives for 2 h and infected with HIV-1 strain IIIB at a m.o.i. of approximately 0.1. The infected PEL were maintained in RPMI-1640 medium supplemented with 10% (v/v) heat-inactivated fetal calf serum at 37° C. in a humidified 5% CO2 in air atmosphere. After 48 h, the cells were washed twice in Hank's balaned salt solution, serially diluted and seeded into multiple wells of a 96-well microtiter plate. Immediately, 2×10^5 exponentially growing Sup T1 cells were added to each well; Sup T1 cells readily form a syncytium with a cell which is productively infected with HIV-1. The wells were examined daily for the presence of syncytia, using a tissue culture microscope. The first signs of syncytia formation can be seen in 12 h, with some complete syncytia developing by 24 h. Final results were read at 72 h. Each syncytium was counted as a single infected cell. The number of syncytia per seeded cell is determined and expressed as an infected center per infected cell. In the control (no 2-5A derivative added), 100% syncytia formation was equivalent to 12±3 syncytia per 200 HIV-1 infected cells.

[1] = system: HIV-1 reverse transcriptase; assay: HIV-1 reverse transcriptase activity in culture supernatant of infected Sup T1 cells; type: cell-based; settings: 300 μM (adenosine and adenine 900 μM), 6 h pre-treatment, 96 h post-infection; average of triplicates
Procedure: Sup T1 cells were treated with 2-5A or a phosphorothioate/phosphodiester derivative at 300 μM for 6 hours and then infected with HIV-1 at a multiplicity of infection (M.O.I) of approximately 0.1. Adenosine and adenine were tested at 900 μM. At 96 hours post-infection, culture supernatant was removed and HIV-1 RT activity was assayed in triplicate as described by Henderson et al., Virology 182:186-198 (1991). Briefly in this method, 25 μl of culture supernatant was added to a 50 μl cocktail containing 50 mM Tris (pH 8.0), 20 mM dithiothreitol, 10 mM MgCl2, 60 mM NaCl, 0.05 Nonidet p-40, 5 μg/ml oligodeoxythymidylic acid, 10 μg/ml polyriboadenylic acid, 10 μM deoxythymidine triphosphate and 1 mCi [^32 p]thymidine 5'-triphosphate. The mixture was incubated at 37° C. for 2 hours. Fifty microliters of the cocktail were then spotted onto diethylaminoethyl (DEAE) paper, dried, washed with 2× SSC solution (three times for 10 minutes each time) and 95% ethanol (two times for 5 minutes each time), dried and exposed to radiographic film for 18 to 24 hours at -80° C. The filters were cut and final quantitation was determined by scintillation spectrometry.

serum phosphodiesterases = assay: Stability of 2-5A core derivatives to serum phosphodiesterase; type: in vitro ADME, fetal calf; settings: for Hydrolysis Products / % Hydrolysis: 300 μM, 37° C.; for Hydrolysis Products: 10% fetal calf serum, 6 h, identified by HPLC; for % Hydrolysis: RPMI-1640 + 10% fetal calf serum, 6 h (A2, A3: 20 min)
Procedure: The stability of authentic 2-5A and phosphorothioate/phosphodiester trimer and tetramer core derivatives (300 μM) was determined by incubation in 200 μL of RPMI-1640 medium supplemented with 10% fetal calf serum in 5% CO2 -in-air at 37° C. Aliquots (30 μL) were removed at time zero and 6 hours. The hydrolysis products were identified by HPLC as described in Kariko et al. , Biochemistry 26: 7127-7135 (1987).
No hydrolysis of the phosphorothioate/phosphodiester trimer core derivatives was observed. However, the phosphorothioate/phosphodiester tetramer core derivatives were hydrolyzed from the 5'- or 2',3'-terminus, depending on the location of the phosphorothioate-substituted internucleotide linkage.

RNase L = assay: rRNA cleavage assay in L929 cell extracts (activation of RNase L); type: biochemical; settings: 1 h at 30° C., > = no activation up to this concentration
Procedure: FIG. 2A represents the results of a ribosomal RNA cleavage assay with 2',5'-phosphorothioate/phosphodiester trimer core 2-5A derivatives. The procedure was performed according to the method of Kariko et al., Biochemistry 26: 7127-7135 (1987). 2-5A oligomer (phosphodiester internucleotide linkage) is also included for comparison. L929 cell extracts were incubated in the absence (lane 1) or presence of p3 A3 at 10^-8 M (lane 2), ARp *ApA at 10^-6 M (lane 3), ASp *ApA at 10^-6 M (lane 4), ApARp *A at 10^-6 M (lane 5), ApASp *A at 10^-6 M (lane 6) or A3 at 10^-6 M (lane 7). The positions of 28S and 18S rRNA are shown; the arrows indicate the positions of the well-characterized specific cleavage products (SCP) of RNase L.
FIG. 2B represents the results of a ribosomal RNA cleavage assay performed according to the method of FIG. 2A with 2',5'-phosphorothioate/phosphodiester trimer 5'-monophosphate derivatives. L929 cell extracts were incubated in the absence (lane 1) or presence of p3 A3 at 2×10^-9 M (lane 2), pA3 at 10^-6 M (lane 3), pARp *ApA at 10^-7 M (lane 4), pASp *ApA at 10^-7 M (lane 5), pApARp *A at 2×10^-9 M (Lane 6), pApASp *A at 10^-7 M (lane 7).
FIG. 3A represents the results of a ribosomal RNA cleavage assay performed according to the method of FIG. 2A with 2',5'-phosphorothioate/phosphodiester tetramer core 2-5A derivatives. 2-5A oligomer (phosphodiester internucleotide linkage) is also included for comparison. L929 cell extracts were incubated in the absence (lane 1) or presence of p3 A4 at 10^-8 M (lane 2), A4 at 10^-5 M (lane 3), ARp *ApApA at 10^-5 M (lane 4), ASp *ApApA at 10^-5 M (lane 5), ApARp *ApA at 10^-5 M (lane 6), ApASp *ApA at 10^-5 M (lane 7), ApApARp *A at 10^-5 M (lane 8) or ApApASp *A at 10^-5 M (lane 9).
FIG. 3B represents the results of a ribosomal RNA cleavage assay performed according to the method of FIG. 2A with 2',5'-phosphorothioate/phosphodiester tetramer 5'-monophosphate derivatives. L929 cell extracts were incubated in the absence (lane 1) or presence of p3 A4 at 10^-8 M (lane 2), pA4 at 10^-6 M (lane 3), pARp *ApApA at 10^-6 M (lane 4), pASp *ApApA at 10^-6 M (lane 5), pApARp *ApA at 10^-8 M (lane 6), pApASp *ApA at 10^-5 M (lane 7), pApApARp *A at 10^-7 M (lane 8) or pApApASp *A at 10^-7 M (lane 9).
Activation of RNase L by the phosphorothioate/phosphodiester trimer and tetramer 2-5A derivatives was also measured in a rRNA cleavage assay using L929 cell extracts according to the method of Kariko et al. (1987), supra, in which extracts of L929 cells were incubated for 1 h at 30° C. in the presence or absence of 2-5A or 2-5A derivative. […] Authentic p3 A3 was active at 1×10^-8 M (FIG. 2A, lane 2). The corresponding 5'-monophosphates, pARp *ApA, pASp *ApA and pApARp *A, activated at 1×10^-7 M, 1×10^-7 M, and 2×10^-9 M, respectively (FIG. 2B, lanes 4-6), as compared with pA3 which was active at 1×10^-6 M (lane 3).

[2] = system: 2-5A synthetase/RNase L pathway; HHV-6; settings: CFS patients, cited from earlier work

| Compound | inhibition of syncytia formation (in words) (HIV-1 strain IIIB) | inhibition of HIV-1-induced syncytia formation (HIV-1 strain IIIB) [%] | Percent Inhibition of HIV-1 Reverse Transcriptase [1] [%] | Hydrolysis Products (serum phosphodiesterases) | % Hydrolysis (serum phosphodiesterases) [%] | concentration at which RNase L is activated to cleave rRNA to SCP (RNase L) [nM] | HHV-6 activity following therapy ([2]; p<0.01) | mean basal latent 2-5A synthetase level in PBMC extracts following therapy ([2]; controls 2035±325, P<0.001) | 2-5A synthetase/RNase L pathway following therapy ([2]; in temporal association with clinical and neuropsychological improvement) | hydrolysis (in words) (serum phosphodiesterases; serum-containing medium) |
| --- | --- | --- | --- | --- | --- | --- | --- | --- | --- | --- |
| Adenylyl-(2',5')-(PR)-P-thioadenylyl-(2',5')-adenosine [ApARp *A] | most efficient inhibitors of HIV-1 induced syncytia formation | 100 | 31 | not hydrolyzed | 0 | 1000 | – | – | – | – |
| (PR)-P-thioadenylyl-(2',5')-adenylyl-(2',5')-adenosine [ARp *ApA] | – | 10 | 32 | not hydrolyzed | 0 | > 1000 | – | – | – | – |
| Adenylyl-(2',5')-(PR) -P-thioadenylyl-(2',5')-adenylyl-(2',5')-adenosine [ApARp *ApA] | – | 26 | 52 | inosine, hypoxanthine; also recorded: ARp *ApA | 50 | 10000 | – | – | – | – |
| (PS)-P-thioadenylyl-(2',5')-adenylyl-(2',5')-adenosine [ASp *ApA] | – | 15 | 56 | not hydrolyzed | 0 | > 1000 | – | – | – | – |
| poly (I)-poly (C12 U) | – | – | – | – | – | – | significant decrease in HHV-6 activity | 610±220 picomoles 2-5A/mg protein/hour | down regulation of the 2-5A synthetase/RNase L pathway | – |
| Adenylyl-(2',5')-(PS)-P-thioadenylyl-(2',5')-adenosine [ApASp *A] | most efficient inhibitors of HIV-1 induced syncytia formation | 78 | 78 | not hydrolyzed | 0 | > 1000 | – | – | – | – |
| Nc1ncnc2c1ncn2[C@@H]1O[C@H](CO[P@@](O)(=S)O[C@@H]2[C@H](O)[C@@H](COP(=O)(O)O[C@@H]3[C@H](O)[C@@H](COP(=O)(O)O[C@@H]4[C@H](O)[C@@H](CO)O[C@H]4n4cnc5c(N)ncnc54)O[C@H]3n3cnc4c(N)ncnc43)O[C@H]2n2cnc3c(N)ncnc32)[C@@H](O)[C@H]1O [ApApARp *A, Adenylyl-(2'-5')-adenylyl-(2'-5')-(PR)-P-thioadenylyl-(2'-5')-adenosine] | most efficient inhibitors | 90 | 38 | inosine, hypoxanthine; also recorded: ApARp *A | 30 | 10000 | – | – | – | degraded from the 5'-terminus; also recorded: hydrolyzed from the 5'-terminus |

Reference: US5863905A, “2',5'-phosphorothioate/phosphodiester oligoadenylates and anti-viral uses thereof” (Temple University-Of The Commonwealth System of Higher …, priority 1997, dated 1999)
